In the assay the test system is human primary NOK. In words: Replicative senescence / cumulative population doublings. Type of assay: cell-based. As to conditions: in the presence of rapamycin; estimated. On the procedure:
NOK were plated in collagen coated LabTek chamber slides and treated with vehicle or 20 nM rapamycin for 3 days. Cells were then γ-irradiated or not, and further treated with vehicle or rapamycin for 24 h. For TUNEL assay cells were processed for staining immediately, for SA-β-gal cells were passed and assessed 4 days after plating. Apoptosis was detected using the CLICK-IT™ TUNEL ALEXA FLUOR™ 594 Imaging Assay (Life Technologies, Carlsbad, Calif.) and SA-β-gal activity was measured using the SA-β-gal kit (Cell Signaling Technology, Danvers, Mass.) according to the manufacturer's instructions. The proportion of positive cells was determined by fluorescence or transmission microscopy and quantified using ImageJ. Eight different fields containing approximately 60 cells each were quantified per condition. For the calculation of population doublings cells were cultured as described and treated with vehicle or 20 nM rapamycin. Population doublings were calculated every passage using the formula x=[log 10(NH/N1)]/log 10(2)] (Cristofalo et al., PNAS, 95, 10614-10619 (1998)), where N1 is the inoculum cell number and NH the cell harvest number. To yield the cumulated doubling doublings, the population doublings for each passage was calculated and then added to the population doubling levels of the previous passages.

As to `CO[C@H]1C[C@@H]2CC[C@@H](C)[C@@](O)(O2)C(=O)C(=O)N2CCCC[C@H]2C(=O)O[C@H]([C@H](C)C[C@@H]2CC[C@@H](O)[C@H](OC)C2)CC(=O)[C@H](C)/C=C(\C)[C@@H](O)[C@@H](OC)C(=O)[C@H](C)C[C@H](C)/C=C/C=C/C=C/1C` [rapamycin], the “cells a single cell will give rise to before senescence” value is “around 10^17 cells”.

Source of the values: patent publication US9278090B2, “Methods of preventing the development of mucositis and related disorders” (The United States of America, as represented by the …, priority 2012, dated 2016).
